These results are taken from patent US12298318B2, “Targeting ligands for tau pathology” (Texas Children's Hospital, priority 2019, dated 2025).

The target of one data set is T1, MAO-B enzyme (Homo sapiens, UniProt P27338).
T1 sequence (P27338 1-520): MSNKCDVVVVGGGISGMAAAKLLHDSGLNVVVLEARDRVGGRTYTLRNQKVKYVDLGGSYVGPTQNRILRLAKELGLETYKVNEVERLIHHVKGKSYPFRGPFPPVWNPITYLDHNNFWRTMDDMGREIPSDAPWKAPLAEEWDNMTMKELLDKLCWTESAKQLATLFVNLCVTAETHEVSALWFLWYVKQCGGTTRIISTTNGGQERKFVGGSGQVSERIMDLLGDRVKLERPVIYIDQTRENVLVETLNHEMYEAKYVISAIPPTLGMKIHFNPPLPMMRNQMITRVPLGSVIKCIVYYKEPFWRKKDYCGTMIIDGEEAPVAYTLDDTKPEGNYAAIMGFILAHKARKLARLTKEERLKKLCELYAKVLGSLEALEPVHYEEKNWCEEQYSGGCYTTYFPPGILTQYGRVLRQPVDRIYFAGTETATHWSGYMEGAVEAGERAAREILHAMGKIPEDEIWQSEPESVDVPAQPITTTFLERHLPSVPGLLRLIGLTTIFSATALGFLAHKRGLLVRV
Particulars: brain; cited from earlier work.

A further data set addresses tetrameric VIM (Homo sapiens, UniProt P08670). Conditions: cited from earlier work.
For data set [1], the system named is OA treated differentiated SH-SY5Y cells. Briefly: Cell-SELEX sequence abundance by next-generation sequencing. Also noted: species or system human. Conditions: SELEX cycle 26. The method, then:
Aptamer screening was performed using the cell-SELEX approach on differentiated SH-SY5Y cells in a hyperphosphorylative state. FIGS. 2A-2E describe how cell-SELEX was used to identify biomarkers of onset the of AD. OA treated differentiated SH-SY5Y cells were used as a surrogate for hyperphosphorylative neurons to screen DNA aptamers that specifically recognize the differences between the surfaces of treated and untreated cells, using the cell-SELEX methodology modified to capture membrane binding aptamers. A total of 26 cell SELEX cycles were performed. […]
Negative selection eliminated certain sequences that were not specific to the hyperphosphorylative state or have a propensity for hepatocyte uptake. […] The 23 most abundant sequences at round 26 were identified, and their abundance throughout the SELEX process as calculated using AptaAligner is shown in FIG. 2B. […] The secondary structure of the aptamers Tau_1 (SEQ ID NO: 5; DONGYBM) and Tau_3 (SEQ ID NO: 6; MUSQD) calculated using mfold is shown in FIG. 2D. […]
Next-Generation Sequencing (NGS). […] Equimolar quantities of the recovered TA sequences over the range were pooled together and sequenced by Next-Gen DNA sequencing using Ion318 chip (ThermoFisher, Waltham, MA). […]

In data set [2] the test system is hyperphosphorylated SH SY5Y cells. Briefly: Saturation binding of Cy5-labeled aptamer, apparent Kd, SH-SY5Y cells. Also noted: species or system human. Conditions: read-out: apparent equilibrium dissociation constant (Kdapp). On the procedure: (§1) The apparent equilibrium dissociation constants (Kdapp) were measured by serial dilution of aptamer solutions with target hyperphosphorylated, non-target differentiated, and undifferentiated SH-SY5Y cells. The affinity of these aptamers was also tested with another immortal neural progenitor stem cell line, ReN-VM, in hyperphosphorylative and non-hyperphosphorylative conditions. The Kdapp for Tau_1 (SEQ ID NO: 5; DONGYBM) and Tau_3 (SEQ ID NO: 6; MUSQD) with hyperphosphorylated SH SY5Y cells is 0.167±0.015 nM and 0.194±0.032 nM; and for the ReN-VM cells 318.15±46.2 nM and 234.24±38.6 nM, respectively (FIG. 3).
(§2) Hyperphosphorylation. Hyperphosphorylation was induced in SH-SY5Y cells by addition of 30 nM OA (Sigma Aldrich, St. Louis, MO, #459620) in growth medium with 30 μM RA for 24 h. ReNcell VM were hyperphosphorylated using 100 nM QA (SigmaAldrich, St. Louis, MO, #P63204) in culture media for 24 h.
(§3) Aptamer binding studies. Aptamer binding studies were conducted with undifferentiated, differentiated, and hyperphosphorylated SH SY5Y and ReN cell VM grown in 96-wells seeded at 10000 per well. […]

Data set [3] relates to hyperphosphorylative SH-SY5Y cells. Nature of the data set: Binding studies with Cy5-labeled aptamer (cell staining). Format: cell-based, human. Particulars: 50 nM, 2 h at 4° C. (FIG. 2C). From the text: Negative selection eliminated certain sequences that were not specific to the hyperphosphorylative state or have a propensity for hepatocyte uptake. However, the relative abundance of key sequences increased steadily throughout the whole process. The 23 most abundant sequences at round 26 were identified, and their abundance throughout the SELEX process as calculated using AptaAligner is shown in FIG. 2B. The sequence Tau_1 (SEQ ID NO: 5; DONGYBM) was the most prevalent at cycle 26, representing 20.6% of the thioaptamers present. A single base difference from this sequence, Tau_3 (SEQ ID NO: 6; MUSQD), was the second most represented sequence (10.4%). […] The secondary structure of the aptamers Tau_1 (SEQ ID NO: 5; DONGYBM) and Tau_3 (SEQ ID NO: 6; MUSQD) calculated using mfold is shown in FIG. 2D. The sequences present at the final round were grouped by hierarchical clustering and sequence homology using the multiple sequence alignment code MAFFT showing five distinct families, which were also presented as a cladogram (using the Clustal Omega) showing the common ancestry between these five aptamers families (FIG. 2E).
Immunocytochemistry. […]

In the next data set the test system is ReN-VM cells. Nature of the data set: Saturation binding of Cy5-labeled aptamer, apparent Kd, ReN-VM cells. Particulars: read-out: apparent equilibrium dissociation constant (Kdapp). The method, then:
as §1, §2, §3

Data set [4] has as its system hyperphosphorylated SH-SY5Y cells. Nature of the data set: Aptamer-based pulldown and mass spectrometry target identification. The arrangement: species or system human. Conditions: pulldown / immunoprecipitation, mass-spectrometry. The method, then: To characterize the binding target of the aptamers, an aptamer-based pulldown assay was performed, along with aptamer-based immunoprecipitation, followed by mass-spectrometry. The assay was performed for both Tau_1 (SEQ ID NO: 5; DONGYBM) and Tau_3 (SEQ ID NO: 6; MUSQD) aptamers. […] The surface expression of Keratin 6a, 6b was similar on wild-type and transgenic tissue sections, whereas the VIM expression was higher in the Tg mice (FIG. 6C).
Target Identification. The protein targets of Tau_1 (SEQ ID NO: 5; DONGYBM), Tau_3 (SEQ ID NO: 6; MUSQD), Tau-4, and Tau-5 were identified by affinity-pull down using the selected aptamers as the capturing reagent followed by mass-spectroscopy. A scrambled DNA sequence, R2, was used as a control. The hyperphosphorylated SH-SY5Y cells, at 90-95% confluence, were washed with cold PBS buffer and incubated with biotinylated selected aptamers with […] each at 4° C. in PBS, respectively. After 2 hours of gentle agitation, SH-SY5Y cells were cross-linked with 1% formaldehyde for 10 min at rt. The formaldehyde cross-linking was quenched with glycine. Cells were scraped from the plate, washed, lysed with lysing buffer (Thermofisher Scientific, #87787), and treated with protease inhibitor mixture. The lysates were freeze-thawed for 30 min on ice and cleared by centrifuging at 10,000×g for 2 min at 4° C. […] Each sample was analyzed in triplicate. […]

Sequence of tetrameric VIM (P08670 whole entry): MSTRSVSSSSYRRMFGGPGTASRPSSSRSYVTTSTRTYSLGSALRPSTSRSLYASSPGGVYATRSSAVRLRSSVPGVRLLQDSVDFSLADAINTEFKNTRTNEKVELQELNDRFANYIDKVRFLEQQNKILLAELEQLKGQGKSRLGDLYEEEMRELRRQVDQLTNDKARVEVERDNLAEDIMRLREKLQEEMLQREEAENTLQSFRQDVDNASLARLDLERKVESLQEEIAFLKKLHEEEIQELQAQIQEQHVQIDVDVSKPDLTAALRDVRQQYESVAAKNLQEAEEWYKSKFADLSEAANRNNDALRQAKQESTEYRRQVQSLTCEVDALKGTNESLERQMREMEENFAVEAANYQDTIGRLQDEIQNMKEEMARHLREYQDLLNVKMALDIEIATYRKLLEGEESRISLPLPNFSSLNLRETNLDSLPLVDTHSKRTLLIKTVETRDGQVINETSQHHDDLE

On to `Fc1ccc(-c2ccc3c(c2)[nH]c2ccncc23)cn1` [Flortaucipir], for which, at MAO-B enzyme, the off-target binding result is “binds the MAO-B enzyme in the brain”.
`CC1=C(CO)C(=O)O[C@@H]([C@@H](C)[C@H]2CC[C@H]3[C@@H]4C[C@H]5O[C@]56[C@@H](O)C=CC(=O)[C@]6(C)[C@H]4CC[C@]23C)C1` [Withaferin A]: the “binding site on vimentin” value at tetrameric VIM is recorded as “binds the conserved cysteine 382 residue on tetrameric VIM”.
As for “Tau_1: DNA thioaptamer CCCCCCACGGTCTCCGCTCCACAAGTTCAC (DNA, backbone and methylation of C not given here; further chemistry not fully specified)”, the “fraction of the thioaptamers present (abundance)” value in data set [1] is listed as 20.6%. The Kd in data set [2] amounted to 0.167 ± 0.015 nM; in the data set with ReN-VM cells it was 318 ± 46.2 nM. The “binding of Cy5-labeled aptamer to cells” value in data set [3] is “elevated binding levels with the hyperphosphorylative cells”. Moreover, in data set [4], the “possible binding targets by abundance score ranking” value was “keratin 6a, Keratin 6b, and VIM”.
For “Tau_3: DNA thioaptamer CCCCCCACGGTCTCCGCTCCACAAGTCCAC”, in data set [1], the “fraction of the thioaptamers present (abundance)” value came to 10.4%. For the same compound, the results for the Kd (in data set [2]; with ReN-VM cells) were 0.194 ± 0.032 nM and 234 ± 38.6 nM, respectively. In addition, the “binding of Cy5-labeled aptamer to cells” value in data set [3] was “elevated binding levels with the hyperphosphorylative cells”. For the same compound, the “possible binding targets by abundance score ranking” value in data set [4] was “keratin 6a, Keratin 6b, and VIM”.
